Source: publication PMC5391171 (Journal of molecular and cellular cardiology, 2016)

Experiments:
[1] = biological target: cChimera (cNTnC-cTnI [136–163] chimera) (Homo sapiens, UniProt P19429+P63316, C35S/C84S); assay: NMR titration; assay type: binding
[2] = tested on: cardiac isoform of troponin; settings: cited from earlier work
[3] = titration monitored by chemical shift changes

Row | Kd [1] [µM] | SMILES | Binding to cChimera [1, 3] | other results
1 | 10 | Clc1cccc(Nc2ccccc2)c1 [3-chlorodiphenylamine] | – | –
2 | – | Cc1ccc(S(=O)(=O)Nc2ccc(Nc3ccccc3)cc2)cc1 [NSC41053] | NSC41053 Weak binding (very small chemical shift changes that could not be fit to a saturating curve, indicating a KD > 2 mM) | –
3 | – | O=[N+]([O-])c1cccc(Cc2ccc(Cc3cccc([N+](=O)[O-])c3)cc2)c1 [NSC89784] | NSC89784 Weak binding (very small chemical shift changes that could not be fit to a saturating curve, indicating a KD > 2 mM) | –
4 | 800 | O=C(O)c1ccccc1Nc1ccccc1 [NSC215211] | – | –
5 | – | c1ccc(CNCc2ccccc2)cc1 [dibenzylamine] | – | Binding to cChimera ([1]; addition of a methylene carbon relative to benzylaniline): completely abolished binding
6 | – | C#Cc1cnc2nc(O)n(C(CC)CC)c2n1 [tirasemtiv] | – | activity towards the cardiac isoform of troponin [2]: no activity
